Values quoted from earlier work, collected in US10028927B2, “Topical pharmaceutical formulation” (Futura Medical Developments Limited, priority 2015, dated 2018).
Structures can show the parent of a compound that is named as a salt.

Assays:
[1] = saturated systems in polyethylene glycol and propylene glycol
[2] = in vivo

O=C(O)Cc1ccccc1Nc1c(Cl)cccc1Cl [diclofenac acid]
diclofenac flux, polyethylene glycol versus propylene glycol systems [1]: no significant difference
saturated solubility in polyethylene glycol (polyethylene glycol): 11.18 % w/w
saturated solubilities in propanol or iso-propanol (propanol or iso-propanol): 3-4%
saturated solubility in pure ethanol (pure ethanol): 5 % w/w

O=C(O)Cc1ccccc1Nc1c(Cl)cccc1Cl [diclofenac]
systemic clearance compared with other drugs [2]: more rapid systemic clearance compared with other drugs

O=C(O)Cc1ccccc1Nc1c(Cl)cccc1Cl [sodium salt of diclofenac acid, diclofenac sodium]
saturated solubility in propylene glycol (propylene glycol): approximately 50 % w/w
